Results on one molecule are retold here after ChEMBL document CHEMBL1828558, “Discovery of (+)-N-(3-aminopropyl)-N-[1-(5-benzyl-3-methyl-4-oxo-[1,2]thiazolo[5,4-d]pyrimidin-6-yl)-2-methylpropyl]-4-methylbenzamide (AZD4877), a kinesin spindle protein inhibitor and potential anticancer agent” (J Med Chem, 2011).

A word on the IC50: it is the midpoint of a concentration-inhibition curve.

Series [1] can be described thus: Plasma protein binding in Wistar rat. The series is classed as ADME, cell-free. The settings on record: read-out: PPB (converted).
Series [2] deals with T1, Kinesin-like protein KIF23 (Homo sapiens, UniProt Q02241).
T1 sequence (Q02241 whole entry): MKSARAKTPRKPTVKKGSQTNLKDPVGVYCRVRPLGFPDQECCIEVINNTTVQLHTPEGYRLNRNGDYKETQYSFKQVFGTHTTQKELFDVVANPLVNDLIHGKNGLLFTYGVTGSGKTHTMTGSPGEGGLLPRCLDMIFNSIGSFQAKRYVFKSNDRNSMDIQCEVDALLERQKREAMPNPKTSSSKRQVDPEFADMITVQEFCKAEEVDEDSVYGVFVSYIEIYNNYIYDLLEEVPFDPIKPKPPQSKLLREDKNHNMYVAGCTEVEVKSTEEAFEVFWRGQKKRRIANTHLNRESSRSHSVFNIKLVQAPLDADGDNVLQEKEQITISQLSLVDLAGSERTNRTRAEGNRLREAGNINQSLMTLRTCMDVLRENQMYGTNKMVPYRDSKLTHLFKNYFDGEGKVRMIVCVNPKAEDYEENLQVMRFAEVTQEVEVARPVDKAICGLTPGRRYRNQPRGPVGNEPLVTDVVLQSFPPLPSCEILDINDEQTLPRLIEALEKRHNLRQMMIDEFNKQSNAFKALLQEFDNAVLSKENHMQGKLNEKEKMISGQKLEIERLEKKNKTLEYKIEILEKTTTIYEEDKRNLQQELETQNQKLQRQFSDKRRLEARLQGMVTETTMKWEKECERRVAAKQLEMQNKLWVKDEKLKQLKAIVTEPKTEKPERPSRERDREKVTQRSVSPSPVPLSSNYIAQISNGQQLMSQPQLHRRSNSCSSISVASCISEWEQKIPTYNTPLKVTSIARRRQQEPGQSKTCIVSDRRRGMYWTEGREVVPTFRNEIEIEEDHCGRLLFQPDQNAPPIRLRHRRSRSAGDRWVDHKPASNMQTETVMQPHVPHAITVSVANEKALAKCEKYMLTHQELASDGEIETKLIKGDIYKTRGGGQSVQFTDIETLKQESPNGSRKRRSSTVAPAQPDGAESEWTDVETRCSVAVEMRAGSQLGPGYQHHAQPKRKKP
Put plainly: Inhibition of human recombinant GST-MKLP1 after 20 mins by malachite green assay.

The target in the next series is T2, Kinesin-1 heavy chain (Homo sapiens, UniProt P33176).
T2 sequence (P33176 whole entry): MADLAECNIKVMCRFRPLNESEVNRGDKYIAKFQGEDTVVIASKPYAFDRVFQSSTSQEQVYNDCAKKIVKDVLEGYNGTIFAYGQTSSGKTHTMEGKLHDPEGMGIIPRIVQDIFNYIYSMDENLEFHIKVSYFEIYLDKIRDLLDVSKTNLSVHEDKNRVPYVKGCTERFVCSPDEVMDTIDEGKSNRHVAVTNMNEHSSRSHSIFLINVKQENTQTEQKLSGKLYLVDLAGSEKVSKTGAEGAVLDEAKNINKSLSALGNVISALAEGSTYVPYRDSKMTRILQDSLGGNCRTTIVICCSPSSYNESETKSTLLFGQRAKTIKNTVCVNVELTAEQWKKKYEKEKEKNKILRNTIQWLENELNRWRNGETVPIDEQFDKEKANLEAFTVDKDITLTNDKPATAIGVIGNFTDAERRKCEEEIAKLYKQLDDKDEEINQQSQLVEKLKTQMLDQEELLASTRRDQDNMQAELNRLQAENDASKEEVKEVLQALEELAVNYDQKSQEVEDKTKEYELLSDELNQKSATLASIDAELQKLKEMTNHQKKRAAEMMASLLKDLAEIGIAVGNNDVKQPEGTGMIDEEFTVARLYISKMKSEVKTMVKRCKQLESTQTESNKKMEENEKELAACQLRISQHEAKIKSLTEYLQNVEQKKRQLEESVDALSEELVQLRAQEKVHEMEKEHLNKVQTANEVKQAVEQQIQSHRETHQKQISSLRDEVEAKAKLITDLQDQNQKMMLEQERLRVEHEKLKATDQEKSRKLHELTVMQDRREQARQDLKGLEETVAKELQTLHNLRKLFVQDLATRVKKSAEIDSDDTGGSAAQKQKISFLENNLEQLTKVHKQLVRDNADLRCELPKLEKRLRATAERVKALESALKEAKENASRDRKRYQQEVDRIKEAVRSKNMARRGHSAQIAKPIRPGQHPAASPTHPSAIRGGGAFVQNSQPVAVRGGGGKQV
Put plainly: Inhibition of human GST-conventional kinesin ATPase activity after 20 mins by malachite green assay.

Bounds are passed on as bounds.

For `Cc1ccc(C(=O)N(CCCN)C(c2nc3snc(C)c3c(=O)n2Cc2ccccc2)C(C)C)cc1` (single isomer, unassigned; (+)) [AZD-4877], the fraction unbound in series [1] was 0.044. Besides, the concentration for half-maximal inhibition (IC50) in series [2] is 50 µM; at Kinesin-1 heavy chain, > 100 µM.
